Where two headings read alike, the source gives them in different places.
What was measured:
Anti-digoxin [1] = tested on: Anti-digoxin
Protocol: Reagent: Digoxin-G6PDH encapsulated
in liposomes (POPC 70%, POPG
Anti-digoxin optimized for
response, 0.13M G6P, RSA (20
Diluent: 0.5% Triton, 4 mM NAD, 5mM
Protocol: 50 μl of the reagent was drawn up into a diluter and dispensed with 200 μl of buffer containing RSA (1 mg/ml) into a 1 ml Croan cup. A 50 μl aliquot of the sample was drawn up and dispersed with 700 μl of diluent into the Croan cup. Immediately after sample addition, the entire sample was aspirated into a flow cell and readings were taken at 30° over thirty seconds.

Anti-digoxin [2] = tested on: Anti-digoxin; remark: listed apart in the source
Description: As a comparison to the assay using a single liquid reagent an assay was run using unencapsulated enzyme conjugate and antibody in separate liquid reagents. The reagent quantities and the final volume of the assay were arranged to be identical to those in the single reagent assay above in Example 3.

[3] = tested on: monoclonal anti-theophylline; test: Assay for theophylline using encapsulated Theophylline-G6PDH as a single liquid reagent; assay type: biochemical
Description: Theophylline-G6PDH was encapsulated in liposomes (POPC 76%, POPG 4%, and cholesterol 20%) and used in an assay for theophylline. The assay employed the following reagents:
Protocol 0.3 ml of the Reagent dispensed into a Croan cup.

G6PDH = test: Inhibition of G6PDH by encapsulated and free Anti-G6PDH, with or without Triton; assay type: biochemical; conditions: Triton 5%; in words
Description: Anti-G6PDH was encapsulated in liposome. The liposome composition was L-α-dioleoyl lecithin (70%) and L-α-dioleoyl phosphatidyl glycerol (30%).
Enzyme: G6PDH, dissolved in buffer
Free Antibody: Anti-G6PDH, in buffer
Substrate: 0.13M G6P, 0.08M NAD, and
Protocol: 50 μl of enzyme (270 ng) was mixed with 50 μl of free or encapsulated antibody and 0.6 ml Buffer containing (1 mg/ml) with or without 5% Triton. After one hour at ambient temperature, 50 μl of substrate was added together with 0.3 ml buffer.

[4] = digoxin 0.083 μg/ml, 30°, thirty seconds

Compound: C[C@H]1O[C@@H](O[C@H]2[C@@H](O)C[C@H](O[C@H]3[C@@H](O)C[C@H](O[C@H]4CC[C@@]5(C)[C@H](CC[C@@H]6[C@@H]5C[C@@H](O)[C@]5(C)[C@@H](C7=CC(=O)OC7)CC[C@]65O)C4)O[C@@H]3C)O[C@@H]2C)C[C@H](O)[C@@H]1O [Digoxin, digoxin]
- enzyme activity, Single Reagent (Anti-digoxin [1]; [4]): 403 EU
- enzyme activity, Single Reagent (Anti-digoxin [1]; digoxin 0.166 μg/ml): 440 EU
- enzyme activity, Single Reagent (Anti-digoxin [1]; digoxin 0.333 μg/ml): 511 EU
- enzyme activity, Single Reagent (Anti-digoxin [1]; digoxin 0.666 μg/ml): 584 EU
- enzyme activity, Single Reagent (Anti-digoxin [1]; digoxin 1.33 μg/ml): 628 EU
- enzyme activity, Single Reagent (Anti-digoxin [1]; digoxin 2.66 μg/ml): 653 EU
- enzyme activity, Single Reagent (Anti-digoxin [1]; digoxin 10.65 μg/ml): 665 EU
- enzyme activity, Two Reagent (Anti-digoxin [2]; [4]): 410 EU
- enzyme activity, Two Reagent (Anti-digoxin [2]; digoxin 0.166 μg/ml): 456 EU
- enzyme activity, Two Reagent (Anti-digoxin [2]; digoxin 0.333 μg/ml): 518 EU
- enzyme activity, Two Reagent (Anti-digoxin [2]; digoxin 0.666 μg/ml): 603 EU
- enzyme activity, Two Reagent (Anti-digoxin [2]; digoxin 1.33 μg/ml): 645 EU
- enzyme activity, Two Reagent (Anti-digoxin [2]; digoxin 2.66 μg/ml): 678 EU
- enzyme activity, Two Reagent (Anti-digoxin [2]; digoxin 5.33 μg/ml): 713 EU
- enzyme activity, Two Reagent (Anti-digoxin [2]; digoxin 10.65 μg/ml): 717 EU

Compound: Cn1c(=O)c2[nH]cnc2n(C)c1=O [Theophylline, theophylline]
- enzyme activity, Single Reagent ([3]; theophylline 2.5 μg/ml, 30°, thirty second read): 356 Eu
- enzyme activity, Single Reagent ([3]; theophylline 5 μg/ml): 394 Eu
- enzyme activity, Single Reagent ([3]; theophylline 10 μg/ml): 455 Eu
- enzyme activity, Single Reagent ([3]; theophylline 20 μg/ml): 537 Eu
- enzyme activity, Single Reagent ([3]; theophylline 40 μg/ml): 610 Eu

Compound: Triton
- effect of Triton on enzyme activity or extent of inhibition in enzyme by antibody (G6PDH): did not affect
